Drawing on ChEMBL document CHEMBL3585245, “Synthesis and antiproliferative evaluation of 9-methoxy-6-(piperazin-1-yl)-11H-indeno[1,2-c]quinoline-11-one derivatives. Part 4” (Medchemcomm, 2014), this text covers Activity and IC50 for 2 molecules.

Active and inactive are the calls of the source. No cut-off for these calls is given here. Where only a bound is given, the exact number is not on record here.

The IC50 is the concentration that gives 50% inhibition.

For assay [1], the system named is NCI-H1299. Put plainly: Induction of apoptosis in human H1299 cells assessed as early apoptotic cells level at 1 uM annexin V and propidium iodide double staining based flow cytometry (reference value: 0.4 +/- 0.17%). In kind it is functional.
The subject of assay [2] is NCI-H1299. As to the kind of experiment: Induction of apoptosis in human H1299 cells assessed as late apoptotic cells level at 1 uM annexin V and propidium iodide double staining based flow cytometry (reference value: 1.9 +/- 0.12%). In kind it is functional.
In assay [3] the test system is NCI-H1299. As to the kind of experiment: Induction of apoptosis in human H1299 cells assessed as early apoptotic cells level at 5 uM annexin V and propidium iodide double staining based flow cytometry (reference value: 0.4 +/- 0.17%). It counts as functional.
Assay [4] relates to NCI-H1299. Put plainly: Induction of apoptosis in human H1299 cells assessed as late apoptotic cells level at 5 uM annexin V and propidium iodide double staining based flow cytometry (reference value: 1.9 +/- 0.12%). In kind it is functional. (In general: A flow cytometer gives signals particle by particle.)
The subject of assay [5] is NCI-H1299. Put plainly: Induction of apoptosis in human H1299 cells assessed as early apoptotic cells level at 10 uM annexin V and propidium iodide double staining based flow cytometry (reference value: 0.4 +/- 0.17%). In kind it is functional.
Assay [6] relates to NCI-H1299. Put plainly: Induction of apoptosis in human H1299 cells assessed as late apoptotic cells level at 10 uM annexin V and propidium iodide double staining based flow cytometry (reference value: 1.9 +/- 0.12%). In kind it is functional.
Another assay deals with HeLa. As to the kind of experiment: Antiproliferative activity against human HeLa cells incubated for 72 hrs by MTT assay. In kind it is functional, cell-based. (In general: Tetrazolium dyes change colour on reduction, which living cells bring about.)
A further assay concerns SAS. As to the kind of experiment: Antiproliferative activity against human SAS cells incubated for 72 hrs by MTT assay. It counts as functional, cell-based.
Assay [7] in a line: Antiproliferative activity against human SKHep cells incubated for 72 hrs by MTT assay. It counts as functional, cell-based.
For a further assay, the system named is AGS. Put plainly: Antiproliferative activity against human AGS cells incubated for 72 hrs by MTT assay. In kind it is functional, cell-based.
A short description of assay [8]: Antiproliferative activity against human 786-O cells incubated for 72 hrs by MTT assay. In kind it is functional, cell-based. The settings on record: 786-0, 72 h.
The subject of the next assay is MDA-MB-231. Put plainly: Antiproliferative activity against human MDA-MB-231 cells incubated for 72 hrs by MTT assay. The settings on record: MDA-MB-231, 72 h. It counts as functional, cell-based.
Assay [9] relates to NCI-H1299. As to the kind of experiment: Antiproliferative activity against human H1299 cells incubated for 72 hrs by MTT assay. In kind it is functional, cell-based. The settings on record: NCI-H1299, 72 h.
Assay [10] concerns NCI-H1299. Put plainly: Induction of DNA damage in human H1299 cells at 10 uM incubated for 24 hrs by single cell electrophoresis-based alkaline comet assay. It counts as functional.
The test system of assay [11] is NCI-H1299. As to the kind of experiment: Induction of apoptosis in human H1299 cells assessed as increase in BAX cleavage at 1 to 10 uM incubated for 24 hrs by Western blotting method. In kind it is functional, cell-based. Background: Immunoblotting shows a protein as a band on a membrane.
Assay [12] relates to NCI-H1299. As to the kind of experiment: Induction of apoptosis in human H1299 cells assessed as increase in caspase-3 activation at 1 to 10 uM incubated for 24 hrs by Western blotting method. It counts as functional, cell-based.
Assay [13] concerns NCI-H1299. Put plainly: Induction of apoptosis in human H1299 cells assessed as increase in caspase-7 activation at 1 to 10 uM incubated for 24 hrs by Western blotting method. It counts as functional, cell-based.
Assay [14] deals with NCI-H1299. As to the kind of experiment: Induction of apoptosis in human H1299 cells assessed as decrease in Bcl2 expression at 1 to 10 uM incubated for 24 hrs by Western blotting method. In kind it is functional, cell-based.
A short description of assay [15]: Reduction in HDAC6 protein expression in human H1299 cells at 1 to 10 uM incubated for 24 hrs by Western blotting method. It counts as functional, cell-based. The settings on record: NCI-H1299.
Assay [16] can be described thus: Reduction in SIRT1 protein expression in human H1299 cells at 1 to 10 uM incubated for 24 hrs by Western blotting method. It counts as functional, cell-based. The settings on record: NCI-H1299.
Assay [17] in a line: Reduction in FOXO3a protein expression in human H1299 cells at 1 to 10 uM incubated for 24 hrs by Western blotting method. In kind it is functional, cell-based. The settings on record: NCI-H1299.
Assay [18] in a line: Reduction in p-Akt protein expression in human H1299 cells at 1 to 10 uM incubated for 24 hrs by Western blotting method. In kind it is functional, cell-based. The settings on record: NCI-H1299.
The nature of assay [19]: Reduction in PTEN protein expression in human H1299 cells at 1 to 10 uM incubated for 24 hrs by Western blotting method. In kind it is functional, cell-based. The settings on record: NCI-H1299.
Assay [20] concerns NCI-H1299. Put plainly: Induction of apoptosis in human H1299 cells assessed as early apoptotic cells level at 1 uM annexin V and propidium iodide double staining based flow cytometry (reference value: 0.74 +/- 0.31%). It counts as functional.
Assay [21] concerns NCI-H1299. Put plainly: Induction of apoptosis in human H1299 cells assessed as late apoptotic cells level at 1 uM annexin V and propidium iodide double staining based flow cytometry (reference value: 2.62 +/- 0.75%). It counts as functional.
The subject of assay [22] is NCI-H1299. As to the kind of experiment: Induction of apoptosis in human H1299 cells assessed as early apoptotic cells level at 5 uM annexin V and propidium iodide double staining based flow cytometry (reference value: 0.74 +/- 0.31%). In kind it is functional.
For assay [23], the system named is NCI-H1299. As to the kind of experiment: Induction of apoptosis in human H1299 cells assessed as late apoptotic cells level at 5 uM annexin V and propidium iodide double staining based flow cytometry (reference value: 2.62 +/- 0.75%). It counts as functional.
Assay [24] relates to NCI-H1299. Put plainly: Induction of apoptosis in human H1299 cells assessed as early apoptotic cells level at 10 uM annexin V and propidium iodide double staining based flow cytometry (reference value: 0.74 +/- 0.31%). In kind it is functional.
The test system of assay [25] is NCI-H1299. As to the kind of experiment: Induction of apoptosis in human H1299 cells assessed as late apoptotic cells level at 10 uM annexin V and propidium iodide double staining based flow cytometry (reference value: 2.62 +/- 0.75%). It counts as functional.
The test system of a further assay is Detroit 551. Put plainly: Antiproliferative activity against human Detroit 551 cells incubated for 72 hrs by MTT assay. In kind it is functional, cell-based. The settings on record: Detroit 551, 72 h.
Another assay concerns Nucleic Acid. As to the kind of experiment: Induction of DNA intercalation of negative supercoiled Escherichia coli pBR322 DNA at 10 uM incubated for 12 hrs by ethidium bromide staining based DNA mobility assay. In kind it is nucleic-acid assay.
Assay [26] has as its system NCI-H1299. As to the kind of experiment: Induction of DNA damage in human H1299 cells at 5 uM incubated for 24 hrs by single cell electrophoresis-based alkaline comet assay. It counts as functional.
Assay [27] concerns NCI-H1299. As to the kind of experiment: Induction of apoptosis in human H1299 cells assessed as increase in PARP cleavage at 1 to 10 uM incubated for 24 hrs by Western blotting method. It counts as functional, cell-based.

Take `COc1ccc2c(c1)C(=O)c1c-2c(N2CCN(CC3CO3)CC2)nc2ccccc12` (stereo not given): the Activity in the assay on NCI-H1299 [1] is recorded as 1.83%; with NCI-H1299 [2] it was 4.51%; in the assay with NCI-H1299 [3], 1.57%; in the assay with NCI-H1299 [4] it was 4.98%; in the assay with NCI-H1299 [5] it was 3.29%; with NCI-H1299 [6], 7.57%. The IC50 was 10.7 µM in the assay on HeLa; more than 30 µM in the assay with SAS; more than 30 µM in assay [7]; 21.4 µM with AGS; 19.1 µM in assay [8]; 7.65 µM with MDA-MB-231. Also, 7.92 µM corresponded to half-maximal inhibition in the assay with NCI-H1299 [9] (IC50). Also, the result in the assay with NCI-H1299 [10] was Active.
`COc1ccc2c(c1)/C(=N\OCC1CO1)c1c-2c(N2CCN(CC3CO3)CC2)nc2ccccc12` (stereo not given): the result (in the assay with NCI-H1299 [11]; in the assay on NCI-H1299 [12]; with NCI-H1299 [13]; in the assay with NCI-H1299 [14]; in assay [15]; in [16]) was Active. Moreover, the result (in [17]; in [18]; in [19]; with Nucleic Acid; in the assay on NCI-H1299 [26]; in the assay with NCI-H1299 [27]) was Active. Besides, the Activity in the assay with NCI-H1299 [20] is 1.38%; with NCI-H1299 [21], 4.5%; in the assay with NCI-H1299 [22], 2.45%; in the assay on NCI-H1299 [23], 8.25%; in the assay with NCI-H1299 [24] it was 1.6%; with NCI-H1299 [25], 17.9%. The IC50 in the assay with HeLa worked out at 0.54 µM; in the assay with SAS it was 6.2 µM; in assay [7] it was 0.99 µM; with AGS it was 8.76 µM; in assay [8], 8.8 µM; in the assay on MDA-MB-231 it was 0.79 µM. Further, the IC50 worked out at 1.18 µM in the assay on NCI-H1299 [9] and 7.95 µM in the assay with Detroit 551.
